Test results as given in patent US6150414A, “Compositions and methods for treating viral infections” (priority 1992, dated 2000).
Values joined by “and” are separate entries in the source; they are usually repeats but may differ in a detail not shown here. Equal entries are not always repeated.

What was measured:
[1] = system: retroviruses; experiment: Comparison over two in vitro and one in vivo biological assays (Example 10); settings: Example 10, structural comparison
Method: In order to investigate the structural features of hypericin which are essential for antiretroviral activity, numerous analogs and precursors of hypericin were examined for activity in two in vitro and one in vivo biological assay.
(§1) (1) Direct inactivation of retroviruses in vitro, performed as in Example 3 above;
(§2) (3) In vivo inhibition of Friend Leukemia Virus Splenomegaly performed as described in Example 1 above except that the compounds were administered intravenously 1-2 hours post infection.

[2] = system: retroviruses (virions); experiment: Direct inactivation of retroviruses (virions) in vitro (Example 10); format: biochemical, Radiation Leukemia Virus; settings: Table IX
Method: (§3) Supernatants (10 ml/tube) from B10.T(6R) cells (Meruelo et al. J. Exp. Med. 147: 470-487, 1978) chronically infected with Radiation Leukemia Virus (RadLV) were obtained by centrifugation of cells in culture at 4° C., 3500 rpm for 15 minutes. The top 2/3 of the supernatant were removed and aliquots were incubated for 30 minutes on ice with the indicated amounts of hypericin or protohypericin. […] Thereafter, supernatants were centrifuged at 100,000×g using a TI70 rotor (Beckman Instruments) for 1 hour at 4° C. The pellet was […] and analyzed for reverse transcriptase activity as follows.
(§4) The reverse transcriptase assay was performed in a volume of 100 microliters containing the following components:
as §1
(§5) The results presented above in Table IX are presented as EC50 concentrations. These are the effective concentrations which inhibit 50% of the viruses in micromolar concentrations.

[3] = system: Friend Leukemia Virus; experiment: In vivo inhibition of Friend Leukemia Virus splenomegaly, intravenous 1-2 hours post infection (Example 10); set-up: species or system mice; settings: Mus musculus, read-out: EC50 for FV-induced splenomegaly
Method: as §2, §5

[4] = system: Friend Virus; experiment: Friend Virus-induced splenomegaly, WIS compounds (Example 8); format: in vivo, mice; settings: for Average % Inhibition / Average Spleen Weight / Actual Spleen Weight: Table VII; for Actual Spleen Weight: single animal
Method: The effects of compositions according to the present invention on the increase in spleen size (splenomegaly) of BALB/c mice (Jackson Labs, Bar Harbor, ME) was examined. In these experiments, the virus (10^6 focus forming units--FFU) was inoculated intravenously and 100 micrograms of the compounds indicated in Table II were administered to the mice intraperitoneally 24 hours later. Each compound was administered once to two mice. The animals were sacrificed ten days later and their spleens weighed.
As used in Table II (and subsequent Tables of this Example l(a) and (b), "average percent inhibition" is calculated as follows: [formula] wherein "ASWNC" designates "average spleen weight of negative control"; "ASWE" designates "average spleen weight of experimental (treated) subject"; and "ASWPC" designates "average spleen weight of positive control". Average spleen weight is the numerical average of spleen weights of each experimental group (in Table II each such group includes two members).
The AAB compounds whose synthesis is described above were assayed for antiviral activity. WIS-2, -3, -4, -5 and -6 were tested to determine their biological effects on Friend Virus-induced splenomegaly using the procedure and technique set forth in Example 1 above. The assay results (three mice per group were tested each at different concentrationss of the active composition except for the PBS-negative control wherein two animals per group were used) are reported in Table VII below.

[5] = target: T1, Radiation Leukemia Virus reverse transcriptase (Radiation murine leukemia virus, UniProt P11227); experiment: Radiation Leukemia Virus reverse transcriptase assay, supernatants from infected AQR cells (Examples 4 and 9); format: biochemical; settings: Table VIII; for CPM: replicate
T1 construct: the reverse transcriptase of Radiation Leukemia Virus; endogenous in cells
Method: as §3, §4
The antiviral activity of HHA was tested using AQR (Bach and Meruelo, J. Exp. Med. 160:270-285, 1984) cells chronically infected with Radiation Leukemia Virus in the reverse transcriptase assay as described in Example 3 above.
The assays were conducted using the same procedure as in Example 3 above, using supernatants from infected AQR cells.

For `CC(=O)Oc1cc(C)c2c3c(C)cc(OC(C)=O)c4cc5c(OC(C)=O)cc(OC(C)=O)c6c7c(OC(C)=O)cc(OC(C)=O)c8cc1c2c(c87)c(c43)c56` [WIS-4, desoxohypericinhexaacetate], the “loss of antiviral activity relative to parent” value [1] was “loss of activity”, the EC50 [2] was 6.9 µM and the EC50 [3] was greater than 242 µM. For the same molecule, the “Average % Inhibition” value ([4]; 1 microgram) was 14.9%, the “Average Spleen Weight” value ([4]; 1 microgram) was 0.8480 and the “Actual Spleen Weight” value ([4]; 1 microgram) was 0.7790 and 0.8852 and 0.8797. For the same molecule, the “Average % Inhibition” value ([4]; 10 micrograms) was 22.0%, the “Average Spleen Weight” value ([4]; 10 micrograms) was 0.7921 and the “Actual Spleen Weight” value ([4]; 10 micrograms) was 0.8118 and 0.8625 and 0.7019. For the same molecule, the “Average % Inhibition” value ([4]; 50 micrograms) was 28.8%, the “Average Spleen Weight” value ([4]; 50 micrograms) was 0.7384 and the “Actual Spleen Weight” value ([4]; 50 micrograms) was 0.7368 and 0.7744 and 0.7041. For the same molecule, the “Average % Inhibition” value ([4]; 150 micrograms) was 46.1%, the “Average Spleen Weight” value ([4]; 150 micrograms) was 0.6012 and the “Actual Spleen Weight” value ([4]; 150 micrograms) was 0.6214 and 0.6663 and 0.5159. For the same molecule, the “antiviral activity in splenomegaly assay” value ([4]; Example 8) was “most active compounds of the group in the splenomegaly assay”, the “Average CPM” value ([5]; 0.05 micrograms) was 164,212 CPM and the CPM ([5]; 0.05 micrograms) was 156,830 CPM and 171,594 CPM. For the same molecule, the “Average CPM” value ([5]; 0.1 micrograms) was 144,512 CPM, the CPM ([5]; 0.1 micrograms) was 100,504 CPM and 188,520 CPM and the “Average CPM” value ([5]; 0.5 micrograms) was 208,119 CPM. For the same molecule, the CPM ([5]; 0.5 micrograms) was 196,740 CPM and 219,498 CPM, the “Average CPM” value ([5]; 1 microgram) was 180,180 CPM and the CPM ([5]; 1 microgram) was 179,312 CPM and 181,048 CPM. For the same molecule, the “Average CPM” value ([5]; 2 micrograms) was 237,365 CPM, the CPM ([5]; 2 micrograms) was 236,374 CPM and 238,356 CPM and the “Average CPM” value ([5]; 5 micrograms) was 164,440 CPM. For the same molecule, the CPM ([5]; 5 micrograms) was 164,780 CPM and 164,100 CPM, the “Average CPM” value ([5]; 10 micrograms) was 184,852 CPM and the CPM ([5]; 10 micrograms) was 186,168 CPM and 183,536 CPM. The inhibition at 50 ng ([5]; 0.5 h, 0.05 micrograms) was 79.9%, the inhibition at 0.0001 mg ([5]; 0.5 h, 0.1 micrograms) was 82.3% and the inhibition at 0.0005 mg ([5]; 0.5 h, 0.5 micrograms) was 74.5%. For the same molecule, the inhibition at 0.001 mg ([5]; 0.5 h, 1 microgram) was 77.9%, the inhibition at 0.002 mg ([5]; 0.5 h, 2 micrograms) was 70.9% and the inhibition at 0.005 mg ([5]; 0.5 h, 5 micrograms) was 79.9%. It also gave an inhibition at 0.01 mg ([5]; 0.5 h, 10 micrograms, read-out: Average % Inhibition) of 77.4%.
